Measured values: ChEMBL document CHEMBL3639280, “2-Phenyl-1-[4-(2-Aminoethoxy)-Benzyl]-Indole and estrogen formulations” (2014)

Molecular target: T1, Estrogen receptor (Homo sapiens, UniProt P03372)
T1 sequence (P03372 whole entry): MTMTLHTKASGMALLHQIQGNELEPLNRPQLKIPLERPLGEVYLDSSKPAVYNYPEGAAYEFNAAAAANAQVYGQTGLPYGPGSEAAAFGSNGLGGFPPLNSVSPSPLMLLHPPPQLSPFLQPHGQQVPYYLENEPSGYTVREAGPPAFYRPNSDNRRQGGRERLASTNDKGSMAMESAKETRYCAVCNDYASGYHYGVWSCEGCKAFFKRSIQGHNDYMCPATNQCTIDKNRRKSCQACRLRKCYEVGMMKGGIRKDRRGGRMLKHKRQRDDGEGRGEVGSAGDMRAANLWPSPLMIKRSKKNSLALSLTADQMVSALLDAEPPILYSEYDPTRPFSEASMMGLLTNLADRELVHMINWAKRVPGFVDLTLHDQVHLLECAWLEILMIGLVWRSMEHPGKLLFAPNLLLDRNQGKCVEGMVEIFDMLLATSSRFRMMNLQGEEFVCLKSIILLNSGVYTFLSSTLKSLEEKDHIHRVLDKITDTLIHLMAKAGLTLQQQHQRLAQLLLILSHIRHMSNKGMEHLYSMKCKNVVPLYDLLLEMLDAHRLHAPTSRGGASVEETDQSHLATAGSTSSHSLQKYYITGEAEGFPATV
Assay: Binding Assay: The competition assay was performed in a 96-well plate (polystyrene*) which binds <2.0% of the total input [3H]-17beta-estradiol and each data point was gathered in triplicate. 100 uG/100 uL of the receptor preparation was aliquoted per well. A saturating dose of 2.5 nM [3H]17beta-estradiol+competitor (or buffer) in a 50 uL volume was added in the preliminary competition when 100x …

IC50: 1 nM
SMILES: Cc1c(-c2ccc(O)cc2)n(Cc2ccc(OCCN3CC4CCC3C4)cc2)c2ccc(O)cc12 (stereo unspecified)
